The source of these data is paper PMC7017366, “Glucose Uptake Stimulatory and PTP1B Inhibitory Activities of Pimarane Diterpenes from Orthosiphon stamineus Benth” (Biomolecules, 2019).

Usually Ki stands for a dissociation constant, usually derived from enzyme kinetics or from competition with a known ligand. As usually defined, the IC50 is the concentration at which inhibition is half-maximal.

One assay relates to PTP1B. Details: method as in PMID 23604820. As to conditions: very low IC50 values; cited from earlier work.
Another assay has as its system 3T3-L1 adipocytes. The experiment in a line: Adipocyte-based measurement of 2-NBDG uptake. Format: cell-based. The text has this:
DM is a metabolic ailment that is categorized by glucose intolerance and deviations of lipid and protein metabolism processes. Previously, 2-NBDG was used as a potential agent to evaluate the action of compounds as insulin mimickers. In our experiment, we examined the activity of the pimarane diterpenes 1–7 on 2-NBDG uptake in the 3T3-L1 adipocytes model. […] Among them, compounds 1, 3, 5, 6, and 7 theoretically stimulated glucose uptake by 1.45–1.51-, 1.56–1.68-, 1.55–1.66-, 1.72–1.83-, and 1.67–1.75-fold of inductions, respectively (Figure 2).
Figure 2 The action of pimarane diterpenes (1–7) on 2-NBDG uptake. Compounds concentrations were 5 and 10 µM; Insulin (100 nM); Control (DMSO). The glucose uptake effect was expressed as the mean ± standard deviation (SD) of three replicates. Statistical significance was accessed by Duncan’s multiple range tests (* p < 0.01; ** p < 0.05). […]
Cell Culture and Induction of 3T3-L1 Adipocytes
3T3-L1 cells were purchased from American Type Culture Collection (ATCC, Manassas, VA, USA) and grown in DMEM with 10% FCS. To induce differentiation, 3T3-L1 pre-adipocytes were cultured until confluence was reached (0 day), and the culture medium was replaced with a fresh induction medium containing 5 µg/mL insulin, 0.5 mM 3-isobutyl-1-methylxanthine (IBMX), and 1 µM dexamethasone (DEX) […]
in DMEM with 10% FBS for 2 days. […]
Adipocyte-Based Measurement of 2-NBDG Uptake
3T3-L1 adipocytes grown in black 96-well plates were incubated with each sample for 24 h at 37 °C in a 5% CO2 atmosphere. Subsequently, 250 µM 2-NBDG (dissolved in PBS with 1% BSA) was added to the cells and incubated for a further 30 min. After incubation, cells were washed two times with PBS to remove excess fluorescence in the wells. Then, fluorescence retained by the cells was measured using a PerkinElmer […]

Assay [1] deals with T1, Protein tyrosine phosphatase 1B (human recombinant) (Homo sapiens, UniProt P18031).
T1 construct: purchased Biomol International LP, Plymouth Meeting, PA, USA
T1 sequence (P18031 1-435): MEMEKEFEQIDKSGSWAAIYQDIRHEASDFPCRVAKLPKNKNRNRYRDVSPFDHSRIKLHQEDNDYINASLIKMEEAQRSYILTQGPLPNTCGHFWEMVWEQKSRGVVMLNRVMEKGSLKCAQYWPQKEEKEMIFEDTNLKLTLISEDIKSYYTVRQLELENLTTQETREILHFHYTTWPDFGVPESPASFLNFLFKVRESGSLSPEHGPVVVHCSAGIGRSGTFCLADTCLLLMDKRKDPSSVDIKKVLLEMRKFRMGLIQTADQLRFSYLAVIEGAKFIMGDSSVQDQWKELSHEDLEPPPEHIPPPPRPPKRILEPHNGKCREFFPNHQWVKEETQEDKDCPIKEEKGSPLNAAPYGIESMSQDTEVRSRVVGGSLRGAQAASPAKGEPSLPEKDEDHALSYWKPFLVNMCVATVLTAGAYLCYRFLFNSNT
The experiment in a line: Determination of the inhibition mode (Lineweaver–Burk and Dixon plots). As to conditions: p-NPP substrate; for Ki: Dixon plot; for Inhibition Type: Lineweaver–Burk and Dixon plots. Format: biochemical. The text has this:
The Sigma plot program was used to analyze both the double reciprocal Lineweaver–Burk plot and the Dixon plot by plotting 1/v as a function of the inhibitor (I). […] Table 1 lists the Ki values for these active compounds.
Victor3 V 1420 Multilabel Plate Counter at an excitation and emission wavelength of 485 nm and 535 nm, […]
(§1) Protein tyrosine phosphatase 1B (human recombinant) was purchased from Biomol International LP, Plymouth Meeting, PA, USA, and the inhibitory activities of the tested samples were evaluated using the method as described in [31]. Briefly, 0.05−0.1 µg of PTP1B (BIOMOL International L.P., Plymouth Meeting, PA, USA) and 4 mM p-NPP in a buffer containing 1 mMdithiothreitol, 0.1 M NaCl, 1 mM EDTA, and 50 mM citrate (pH 6.0), with or without test compounds, were added as 100 µL of a final volume to each of the 96 wells. After the reaction mixture was incubated at 37 °C for 30 min, 10 M NaOH was added to quench the reaction. PTP1B enzyme activity was determined by the amount of produced p-nitrophenol at 405 nm. […]
contain the PTP1B enzyme.
Determination of the Inhibition Mode of Active Compounds
The Lineweaver–Burk plot and Dixon plot experiments were carried out in the presence and absence of the inhibitors with various concentrations of p-NPP as the substrate. The inhibition modes of the tested compounds were assessed on the basis of their inhibitory effects on the Km ([…]) and Vmax (maximum reaction velocity) of the enzyme, which were determined by the Lineweaver–Burk plot experiment. The Lineweaver–Burk plot is the double reciprocal plot of the enzyme reaction velocity ( V) versus the substrate ( p-NPP) concentration (1/ V versus 1/( p-NPP)).
(§2) Data are represented as means ± SD of at least three independent experiments performed in triplicated assays and determined by regression analysis. For statistical analysis of the data for single comparison, the significance between means was determined by the Student’s t test. Sigma Plot program version 11.0 was used for analysis of the kinetic data.

The target of assay [2] is T1, Protein tyrosine phosphatase 1B (human recombinant). Description: PTP1B inhibition assay (p-NPP substrate). Format: biochemical. The conditions noted are these: read-out: IC50 PTP1B inhibitory activity.
Excerpt: PTP1B dephosphorylates IR and IRS in the insulin signaling pathway as a negative regulator. In the leptin signaling pathway, PTP1B presented the same manner of tyrosine Janus kinase 2. Thus, inhibition of PTP1B activity might improve the IR and IRS, leading to the enhancement of glucose uptake in adipocyte cells. […]
as §1
contain the PTP1B enzyme. […]
as §2

“Also recorded” adds a separate entry of the source.

On to `C=C[C@]1(C)C=C2C(=O)C[C@H]3[C@@](C)(CCC[C@@]3(C)C(=O)O)[C@@H]2CC1` [7-oxo-ent-pimara-8(14),15-diene-19-oic acid], for which, in the assay on PTP1B, the “PTP1B inhibition (in words)” value is “significantly inhibited”.
As to `C=C[C@]1(C)C=C2C(CC1)[C@]1(C)CCC[C@@](C)(C(=O)O)C1C[C@@H]2O` (stereo partly drawn) [7β-hydroxy-ent-pimara-8(14),15-diene-19-oic acid], the “PTP1B inhibition (in words)” value with PTP1B is given as “significantly inhibited”.
For the compound `C=CC1(C)CCC2C(O)(CCC3C(C)(CO)CCCC32C)C1` (stereo not drawn) [8α-hydroxy-ent-pimara-15-en-19-ol], the “PTP1B inhibition (in words)” value with PTP1B is listed as “significantly inhibited”.
Turning to `C=CC1(C)CC(OC(=O)c2ccccc2)C2C(O)(C1=O)C(O)CC1C(C)(C)C(OC(C)=O)C(OC(C)=O)C(OC(=O)c3ccccc3)C12CO` (stereo not drawn) [Compound 1, siphonol B], in the assay with 3T3-L1 adipocytes (range over 5 and 10 µM), the “2-NBDG uptake, fold of induction” value was 1.45–1.51 fold. In assay [1], the Ki was 52.4 ± 0.9 µM and the “Inhibition Type” value is listed as “mixed-competitive inhibitor; also recorded: mixed-competitive inhibition”. Further, in assay [2], the IC50 was 8.18 ± 0.41 µM.
Turning to `C=CC1(C)CC(OC(=O)c2ccccc2)C2C(O)(C1=O)C(O)CC1C(C)(C)C(OC(C)=O)C(OC(C)=O)C(OC(=O)c3ccccc3)C12COC(C)=O` (stereo not drawn) [Compound 2, siphonol D], in the assay on 3T3-L1 adipocytes (range over 5 and 10 µM), the “2-NBDG uptake, fold of induction” value is given as 1.24–1.33 fold. For the same compound, the IC50 in assay [2] worked out at 24.7 ± 1.12 µM.
Take `C=C[C@@]1(C)C[C@@H](OC(=O)c2ccccc2)[C@H]2[C@](O)(C1=O)[C@H](OC(C)=O)C[C@H]1C(C)(C)[C@H](OC(C)=O)[C@H](O)[C@H](OC(=O)c3ccccc3)[C@@]12C` [Compound 3, orthosiphol B]: the “2-NBDG uptake, fold of induction” value with 3T3-L1 adipocytes (5 μM) came out at 1.56 ± 0.09 fold. Also, the “2-NBDG uptake, fold of induction” value in the assay on 3T3-L1 adipocytes (range over 5 and 10 µM) was 1.56–1.68 fold. For the same compound, in assay [1], the Ki amounted to 75.6 ± 1.7 µM and the “Inhibition Type” value is listed as “non-competitive inhibition”. For the same compound, the IC50 in assay [2] was 9.84 ± 0.33 µM.
For the compound `C=C[C@@]1(C)C[C@@H](OC(=O)c2ccccc2)[C@H]2[C@](O)(C1=O)[C@H](O)C[C@H]1C(C)(C)[C@H](OC(C)=O)[C@H](OC(C)=O)[C@H](OC(=O)c3ccccc3)[C@@]12C` [Compound 4, orthosiphol F], in the assay on 3T3-L1 adipocytes (range over 5 and 10 µM), the “2-NBDG uptake, fold of induction” value was 1.28–1.35 fold. In assay [2], the IC50 was determined as 27.6 ± 2.99 µM.
`C=C[C@@]1(C)C[C@@H](O)[C@H]2[C@](O)(C1=O)[C@H](O)C[C@H]1C(C)(C)[C@H](OC(C)=O)[C@H](OC(C)=O)[C@H](OC(=O)c3ccccc3)[C@@]12C` [Compound 5, orthosiphol G]: the “2-NBDG uptake, fold of induction” value in the assay on 3T3-L1 adipocytes (5 μM) is recorded as 1.55 ± 0.02 fold. Besides, in the assay on 3T3-L1 adipocytes (range over 5 and 10 µM), the “2-NBDG uptake, fold of induction” value is 1.55–1.66 fold. Further, in assay [1], the Ki came out at 23.9 ± 1.2 µM and the “Inhibition Type” value is listed as “non-competitive inhibition”. Moreover, in assay [2], the IC50 is 3.82 ± 0.2 µM.
In the case of `C=C[C@@]1(C)CC(=O)[C@H]2[C@](O)(C1=O)[C@H](O)C[C@H]1C(C)(C)[C@H](OC(C)=O)[C@H](OC(C)=O)[C@H](OC(=O)c3ccccc3)[C@@]12C` [Compound 6, orthosiphol I], the “2-NBDG uptake, fold of induction” value with 3T3-L1 adipocytes (5 μM) is listed as 1.72 ± 0.11 fold. The “2-NBDG uptake, fold of induction” value in the assay on 3T3-L1 adipocytes (range over 5 and 10 µM) is on record as 1.72–1.83 fold. Moreover, in assay [1], the Ki stood at 1.3 ± 0.6 µM and the “Inhibition Type” value was “competitive inhibition”. Moreover, the IC50 in assay [2] is 0.33 ± 0.07 µM.
For the compound `C=CC1(C)CC(=O)C2C(O)(C1=O)C(O)CC1C(C)(C)C(OC(=O)c3ccccc3)C(OC(C)=O)C(OC(=O)c3ccccc3)C12C` (stereo not drawn) [Compound 7, orthosiphol N], in the assay on 3T3-L1 adipocytes (5 μM), the “2-NBDG uptake, fold of induction” value amounted to 1.67 ± 0.08 fold. The “2-NBDG uptake, fold of induction” value with 3T3-L1 adipocytes (range over 5 and 10 µM) is 1.67–1.75 fold. Further, in assay [1], the inhibition constant Ki is 5.5 ± 0.1 µM and the “Inhibition Type” value is on record as “uncompetitive inhibition”. In addition, in assay [2], the IC50 was found to be 1.6 ± 0.17 µM.
For the compound `C[C@H]1[C@H](C)CC[C@]2(C(=O)O)CC[C@]3(C)C(=CC[C@@H]4[C@@]5(C)CC[C@H](O)C(C)(C)[C@@H]5CC[C@]43C)[C@H]12` [Ursolic acid, reference compound], the “Inhibition Type” value in assay [1] is “mixed-competitive inhibitor”.
As to `C=C1C[C@@]23CC[C@H]4[C@@](C)(CCC[C@@]4(C)C(=O)O)[C@@H]2CC[C@@H]1C3` [ent-kaur-16-en-19-oic-acid], the “PTP1B inhibition (in words)” value in the assay on PTP1B is on record as “significantly inhibited”.
Consider `C=C[C@]1(C)C=C2CCC3[C@@](C)(CCC[C@@]3(C)C(=O)O)C2CC1` (stereo partly drawn) [ent-pimara-8(14),15-diene-19-oic acid], for which, in the assay with PTP1B, the “PTP1B inhibition (in words)” value is given as “significantly inhibited”.
As to `C=CC1(C)C=C2CCC3C(C)(CO)CCCC3(C)C2CC1` (stereo not drawn) [ent-pimara-8(14),15-diene-19-ol], the “PTP1B inhibition (in words)” value in the assay with PTP1B is “significantly inhibited”.
Regarding insulin, the “2-NBDG uptake, fold of induction” value with 3T3-L1 adipocytes (positive control at 100 nM) worked out at 1.55 ± 0.07 fold.
